Measured values from ChEMBL document CHEMBL5226376, “A Streptomyces Cytochrome P450 Enzyme Catalyzes Regiospecific C2-Guaninylation for the Synthesis of Diverse Guanitrypmycin Analogs” (J Nat Prod, 2023).
Active and inactive are the calls of the source.

Experiments:
Format in all cases: functional, organism-based
Enterococcus faecalis = test: Antibacterial activity against Enterococcus faecalis DSM2570 assessed as inhibition of bacterial growth incubated for overnight by disk diffusion method
Bacillus subtilis [1] = test: Antibacterial activity against Bacillus subtilis NCIB3610 assessed as inhibition of bacterial growth incubated for overnight by disk diffusion method
Bacillus subtilis [2] = test: Antibacterial activity against Bacillus subtilis BSB01 assessed as inhibition of bacterial growth incubated for overnight by disk diffusion method
Niallia circulans [3] = test: Antibacterial activity against Bacillus circulans NRRLB-14032 assessed as inhibition of bacterial growth incubated for overnight by disk diffusion method
Niallia circulans [4] = test: Antibacterial activity against Bacillus circulans NRRLNRS-1108 assessed as inhibition of bacterial growth incubated for overnight by disk diffusion method
Staphylococcus aureus = test: Antibacterial activity against Staphylococcus aureus ATCC 29213 assessed as inhibition of bacterial growth incubated for overnight by disk diffusion method
Pseudomonas aeruginosa = test: Antibacterial activity against Pseudomonas aeruginosa ATCC 27853 assessed as inhibition of bacterial growth incubated for overnight by disk diffusion method
Escherichia coli [5] = test: Antibacterial activity against Escherichia coli ATCC 25922 assessed as inhibition of bacterial growth incubated for overnight by disk diffusion method
Niallia circulans [6] = test: Antibacterial activity against Bacillus circulans NRRLB-380 assessed as inhibition of bacterial growth incubated for overnight by disk diffusion method
Escherichia coli [7] = test: Antibacterial activity against Escherichia coli DH5alpha assessed as inhibition of bacterial growth incubated for overnight by disk diffusion method
Klebsiella pneumoniae = test: Antibacterial activity against Klebsiella pneumoniae DSM26371 assessed as inhibition of bacterial growth incubated for overnight by disk diffusion method
Staphylococcus delphini = test: Antibacterial activity against Staphylococcus delphini DSM20771 assessed as inhibition of bacterial growth incubated for overnight by disk diffusion method

Measured: Activity

Nc1nc2[nH]c(-c3[nH]c4ccccc4c3C[C@@H]3NC(=O)/C(=C/c4ccc(O)cc4)NC3=O)nc2c(=O)[nH]1
inactive: Enterococcus faecalis | Bacillus subtilis [1] | Bacillus subtilis [2] | Niallia circulans [3] | Niallia circulans [4] | Staphylococcus aureus | Pseudomonas aeruginosa | Escherichia coli [5] | Niallia circulans [6] | Escherichia coli [7] | Klebsiella pneumoniae | Staphylococcus delphini

Nc1nc2[nH]c(-c3[nH]c4ccccc4c3C[C@@H]3NC(=O)/C(=C/c4ccccc4)NC3=O)nc2c(=O)[nH]1
inactive: Enterococcus faecalis | Bacillus subtilis [1] | Bacillus subtilis [2] | Niallia circulans [3] | Niallia circulans [4] | Staphylococcus aureus | Pseudomonas aeruginosa | Escherichia coli [5] | Niallia circulans [6] | Escherichia coli [7] | Klebsiella pneumoniae | Staphylococcus delphini

Nc1nc2[nH]c(-c3[nH]c4ccccc4c3C[C@@H]3NC(=O)[C@H](Cc4ccc(O)cc4)NC3=O)nc2c(=O)[nH]1
inactive: Enterococcus faecalis | Bacillus subtilis [1] | Bacillus subtilis [2] | Niallia circulans [3] | Niallia circulans [4] | Staphylococcus aureus | Pseudomonas aeruginosa | Escherichia coli [5] | Niallia circulans [6] | Escherichia coli [7] | Klebsiella pneumoniae | Staphylococcus delphini

Nc1nc2[nH]c(-c3[nH]c4ccccc4c3C[C@@H]3NC(=O)[C@H](Cc4ccccc4)NC3=O)nc2c(=O)[nH]1
inactive: Enterococcus faecalis | Bacillus subtilis [1] | Bacillus subtilis [2] | Niallia circulans [3] | Niallia circulans [4] | Staphylococcus aureus | Pseudomonas aeruginosa | Escherichia coli [5] | Niallia circulans [6] | Escherichia coli [7] | Klebsiella pneumoniae | Staphylococcus delphini

Nc1nc2[nH]c(-c3[nH]c4ccccc4c3C[C@@H]3NC(=O)[C@H](Cc4c[nH]c5ccccc45)NC3=O)nc2c(=O)[nH]1
inactive: Enterococcus faecalis | Bacillus subtilis [1] | Bacillus subtilis [2] | Niallia circulans [3] | Niallia circulans [4] | Staphylococcus aureus | Pseudomonas aeruginosa | Escherichia coli [5] | Niallia circulans [6] | Escherichia coli [7] | Klebsiella pneumoniae | Staphylococcus delphini
